According to ChEMBL document CHEMBL1149183, “Novel benzo[1,4]diazepin-2-one derivatives as endothelin receptor antagonists” (J Med Chem, 2004):

Columns and labels:
[1] = target: T1, Endothelin receptor type B (Homo sapiens, UniProt P24530); assay: Antagonist activity towards human recombinant Endothelin B receptor expressed in chinese hamster ovary (CHO) cells determined using [125I]ET1 as radioligand; type: functional, cell-based
T1 sequence (P24530 whole entry): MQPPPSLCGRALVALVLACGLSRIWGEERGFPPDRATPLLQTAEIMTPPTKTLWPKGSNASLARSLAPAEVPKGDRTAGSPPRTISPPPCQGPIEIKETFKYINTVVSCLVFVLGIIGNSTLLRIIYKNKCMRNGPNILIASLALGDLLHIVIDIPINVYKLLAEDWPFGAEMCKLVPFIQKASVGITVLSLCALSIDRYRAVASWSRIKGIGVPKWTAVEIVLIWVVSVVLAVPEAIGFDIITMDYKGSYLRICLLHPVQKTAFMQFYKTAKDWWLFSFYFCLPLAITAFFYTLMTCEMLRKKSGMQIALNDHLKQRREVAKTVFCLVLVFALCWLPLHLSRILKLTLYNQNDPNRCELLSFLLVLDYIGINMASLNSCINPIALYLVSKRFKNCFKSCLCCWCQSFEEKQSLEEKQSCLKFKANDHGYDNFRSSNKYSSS

Endothelin-1 receptor = target: T2, Endothelin-1 receptor (Homo sapiens, UniProt P25101); assay: Antagonist activity towards human recombinant Endothelin A receptor expressed in chinese hamster ovary (CHO) cells determined using [125I]ET1 as radioligand; type: functional, cell-based
T2 sequence (P25101 whole entry): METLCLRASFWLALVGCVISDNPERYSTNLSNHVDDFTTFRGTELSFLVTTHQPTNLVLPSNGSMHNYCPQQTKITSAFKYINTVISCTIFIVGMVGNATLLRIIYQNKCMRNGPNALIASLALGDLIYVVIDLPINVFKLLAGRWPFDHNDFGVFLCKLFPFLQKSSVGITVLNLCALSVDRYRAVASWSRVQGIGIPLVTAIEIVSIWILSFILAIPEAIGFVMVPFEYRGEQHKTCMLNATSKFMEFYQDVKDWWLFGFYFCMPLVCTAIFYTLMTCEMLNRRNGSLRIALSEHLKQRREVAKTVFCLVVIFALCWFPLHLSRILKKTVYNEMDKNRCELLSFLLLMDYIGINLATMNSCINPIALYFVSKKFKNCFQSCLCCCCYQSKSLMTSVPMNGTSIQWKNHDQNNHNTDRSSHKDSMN

| Structure (SMILES) | IC50 [1] [nM] | IC50 (Endothelin-1 receptor) [nM] |
| --- | --- | --- |
| COc1ccc(CN2C(=O)CN[C@](c3ccc(C)cc3)([C@H](Oc3nc(C)cc(C)n3)C(=O)O)c3ccccc32)cc1 | 181 | 221 |
| Cc1cc(C)nc(O[C@H](C(=O)O)[C@@]2(c3ccccc3)NCc3nnc(CC(=O)O)n3-c3ccccc32)n1 (racemic) | 261 | 58.8 |
| Cc1cc(C)nc(O[C@H](C(=O)O)[C@@]2(c3ccccc3)NCC(=O)N(CC(=O)O)c3ccccc32)n1 (racemic) | 558 | 13 |
| Cc1cc(C)nc(O[C@H](C(=O)O)[C@@]2(c3ccccc3)NCC(=O)N(Cc3ccc(Cl)cc3)c3ccccc32)n1 (racemic) | 122 | 17.3 |
| Cc1cc(C)nc(O[C@H](C(=O)O)[C@@]2(c3ccccc3)NCC(=O)N(Cc3ccccc3C)c3ccccc32)n1 (racemic) | 55 | 8.9 |
| COc1ccc(CN2C(=O)CN[C@](c3cccc(C(F)(F)F)c3)([C@H](Oc3nc(C)cc(C)n3)C(=O)O)c3ccccc32)cc1 (racemic) | 241 | 24.9 |
| Cc1cc(C)nc(O[C@H](C(=O)O)[C@@]2(c3ccccc3)NCC(=O)N(Cc3cccc(Br)c3)c3ccccc32)n1 (racemic) | 25.5 | 6.4 |
| Cc1ccccc1O[C@H](C(=O)O)[C@@]1(c2ccccc2)NCC(=O)N(Cc2c(Cl)cccc2Cl)c2ccccc21 (racemic) | > 10000 | > 10000 |
| Cc1cc(C)nc(O[C@H](C(=O)O)[C@@]2(c3ccccc3)NCC(=O)N(Cc3ccc(F)cc3F)c3ccccc32)n1 (racemic) | 109 | 6 |
| Cc1cc(C)nc(O[C@H](C(=O)O)[C@@]2(c3ccccc3)NCC(=O)N(Cc3cccc(C(F)(F)F)c3)c3ccccc32)n1 (racemic) | 15.6 | 9.1 |
| COc1cc(OC)cc(O[C@H](C(=O)O)[C@@]2(c3ccccc3)NCC(=O)N(C)c3cc(OC)ccc32)c1 (racemic) | 7780 | 3950 |
| COc1cc(OC)cc(O[C@H](C(=O)O)[C@@]2(c3ccccc3)NCC(=O)N(C)c3cc(OC)c(OC)cc32)c1 (racemic) | 8030 | 443 |
| Cc1cc(C)nc(O[C@H](C(=O)O)[C@@]2(c3ccccc3)NCC(=O)N(CC3CCCCC3)c3ccccc32)n1 (racemic) | 82 | 83.4 |
| COc1cc(OC)cc(O[C@H](C(=O)O)[C@@]2(c3ccccc3)NCC(=O)N(C)c3ccccc32)c1 (racemic) | 6270 | – |
| O=C(O)[C@@H](Oc1ccccc1Cl)[C@@]1(c2ccccc2)NCC(=O)N(Cc2c(Cl)cccc2Cl)c2ccccc21 (racemic) | > 10000 | > 10000 |
| CC(C)c1ccc(O[C@H](C(=O)O)[C@@]2(c3ccccc3)NCC(=O)N(Cc3c(Cl)cccc3Cl)c3ccccc32)cc1 (racemic) | 8620 | > 10000 |
| Cc1ccc(C)c(O[C@H](C(=O)O)[C@@]2(c3ccccc3)NCC(=O)N(Cc3c(Cl)cccc3Cl)c3ccccc32)c1 (racemic) | > 1000 | > 10000 |
| Cc1ccc(CN2C(=O)CN[C@](c3ccccc3)([C@H](Oc3nc(C)cc(C)n3)C(=O)O)c3ccccc32)cc1 (racemic) | 68.8 | 30.5 |
| COc1ccc(CN2C(=O)CN[C@](c3ccccc3F)([C@H](Oc3nc(C)cc(C)n3)C(=O)O)c3ccccc32)cc1 (racemic) | 80.2 | – |
| COCCOCN1C(=O)CN[C@](c2ccccc2)([C@H](Oc2nc(C)cc(C)n2)C(=O)O)c2ccccc21 (racemic) | 47.8 | 7.5 |
| O=C(O)[C@@H](Oc1ccccc1)[C@@]1(c2ccccc2)NCC(=O)N(Cc2c(Cl)cccc2Cl)c2ccccc21 (racemic) | 3700 | 211 |

| Structure (SMILES) | IC50 [1] [nM] | IC50 (Endothelin-1 receptor) [nM] |
| --- | --- | --- |
| Cc1cc(C)nc(O[C@H](C(=O)O)[C@@]2(c3ccccc3)NCC(=O)N(CCN(C)C)c3ccccc32)n1 (racemic) | 1780 | 387 |
| CN1C(=O)CN[C@](c2ccccc2)([C@H](Oc2ncccn2)C(=O)O)c2ccccc21 (racemic) | > 10000 | – |
| COc1ccc(CN2C(=O)CN[C@](c3cc(C)cc(C)c3)([C@H](Oc3nc(C)cc(C)n3)C(=O)O)c3ccccc32)cc1 (racemic) | 761 | 278 |
| Cc1cc(C)nc(O[C@H](C(=O)O)[C@@]2(c3ccccc3)NCC(=O)N(Cc3cccc(F)c3F)c3ccccc32)n1 (racemic) | 18.5 | 3.7 |
| Cc1cccc(O[C@H](C(=O)O)[C@@]2(c3ccccc3)NCC(=O)N(Cc3c(Cl)cccc3Cl)c3ccccc32)c1C (racemic) | > 1000 | > 10000 |
| COc1cc(OC)cc(O[C@H](C(=O)O)[C@@]2(c3ccccc3)NCC(=O)N(Cc3c(Cl)cccc3Cl)c3ccccc32)c1 (racemic) | 392 | 46.2 |
| Cc1cc(C)cc(O[C@H](C(=O)O)[C@@]2(c3ccccc3)NCC(=O)N(Cc3c(Cl)cccc3Cl)c3ccccc32)c1 (racemic) | 109 | 20.5 |
| Cc1cc(C)nc(O[C@H](C(=O)O)[C@@]2(c3ccccc3)NCC(=O)N(Cc3ccc(Br)cc3)c3ccccc32)n1 (racemic) | 119 | 25.8 |
| Cc1cc(C)nc(O[C@H](C(=O)O)[C@@]2(c3ccccc3)NCC(=O)N(Cc3cc(F)cc(F)c3)c3ccccc32)n1 (racemic) | 13.1 | 7.9 |
| COc1ccc(CN2C(=O)CN[C@](c3cccc(F)c3)([C@H](Oc3nc(C)cc(C)n3)C(=O)O)c3ccccc32)cc1 (racemic) | 49.3 | 9.1 |
| Cc1cc(C)nc(O[C@H](C(=O)O)[C@@]2(c3ccccc3)NCC(=O)N(CCCc3ccccc3)c3ccccc32)n1 (racemic) | 18.3 | 17.1 |
| Cc1cc(C)nc(O[C@H](C(=O)O)[C@@]2(c3ccccc3)NCC(=O)N(Cc3ccc(C(C)(C)C)cc3)c3ccccc32)n1 (racemic) | 24.1 | 17.1 |
| Cc1cc(C)nc(O[C@H](C(=O)O)[C@@]2(c3ccccc3)NCC(=O)N(CC3CC3)c3ccccc32)n1 (racemic) | 87.8 | 7.3 |
| O=C(O)[C@@H](Oc1cccc(Cl)c1)[C@@]1(c2ccccc2)NCC(=O)N(Cc2c(Cl)cccc2Cl)c2ccccc21 (racemic) | 3150 | 101 |
| COc1cc(OC)cc(O[C@H](C(=O)O)[C@@]2(c3ccccc3)NCC(=O)N(C)c3cc(Cl)ccc32)c1 (racemic) | 5600 | 3840 |
| Cc1cc(C)nc(O[C@H](C(=O)O)[C@@]2(c3ccccc3)NCC(=O)N(Cc3ccc(C(=O)O)cc3)c3ccccc32)n1 (racemic) | 3530 | 123 |
| Cc1cc(C)nc(O[C@H](C(=O)O)[C@@]2(c3ccccc3)NCC(=O)N(Cc3ccccc3Cl)c3ccccc32)n1 (racemic) | 48.1 | 10.2 |
| Cc1cc(C)nc(O[C@H](C(=O)O)[C@@]2(c3ccccc3)NCC(=O)N(Cc3ccccc3C(F)(F)F)c3ccccc32)n1 (racemic) | 22.5 | 104 |
| Cc1cc(C)nc(O[C@H](C(=O)O)[C@@]2(c3ccccc3)NCc3nnc(C)n3-c3ccccc32)n1 (racemic) | 250 | – |
| Cc1cc(C)nc(O[C@H](C(=O)O)[C@@]2(c3ccccc3)NCC(=O)N(Cc3cccc(F)c3)c3ccccc32)n1 (racemic) | 26.8 | 6.7 |
| COc1cc(OC)nc(O[C@H](C(=O)O)[C@@]2(c3ccccc3)NCC(=O)N(C)c3ccccc32)n1 (racemic) | 473 | 23.4 |
